In ChEMBL document CHEMBL5653615 (J Biol Chem, 2013):

Experiments:
[1] = molecular target: T1, cGMP-dependent protein kinase 1 (Homo sapiens) (UniProt Q13976); test: Inhibition of human PKG1b at 18.6 nM by HotSpot assay relative to control
T1 sequence (whole entry): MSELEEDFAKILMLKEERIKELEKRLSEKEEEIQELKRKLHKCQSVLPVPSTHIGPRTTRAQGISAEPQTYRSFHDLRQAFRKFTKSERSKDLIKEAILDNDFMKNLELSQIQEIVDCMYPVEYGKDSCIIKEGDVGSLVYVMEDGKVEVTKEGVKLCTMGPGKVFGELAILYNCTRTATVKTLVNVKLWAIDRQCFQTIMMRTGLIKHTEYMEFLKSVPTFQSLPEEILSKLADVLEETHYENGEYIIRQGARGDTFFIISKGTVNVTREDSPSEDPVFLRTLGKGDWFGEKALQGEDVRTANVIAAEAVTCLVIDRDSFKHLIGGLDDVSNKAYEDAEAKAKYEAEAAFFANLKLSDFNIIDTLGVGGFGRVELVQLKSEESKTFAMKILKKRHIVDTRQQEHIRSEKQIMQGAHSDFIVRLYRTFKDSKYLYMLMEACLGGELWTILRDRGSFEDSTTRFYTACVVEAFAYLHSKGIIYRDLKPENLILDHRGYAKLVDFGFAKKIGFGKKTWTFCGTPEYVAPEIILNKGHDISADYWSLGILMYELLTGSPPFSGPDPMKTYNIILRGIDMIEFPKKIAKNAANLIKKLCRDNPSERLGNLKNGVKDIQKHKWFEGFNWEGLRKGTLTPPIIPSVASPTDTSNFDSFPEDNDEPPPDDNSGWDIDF

[2] = molecular target: T2, Serine/threonine-protein kinase ULK1 (Homo sapiens) (UniProt O75385); test: Inhibition of human ULK1 at 1.82 nM by HotSpot assay relative to control
T2 sequence (whole entry): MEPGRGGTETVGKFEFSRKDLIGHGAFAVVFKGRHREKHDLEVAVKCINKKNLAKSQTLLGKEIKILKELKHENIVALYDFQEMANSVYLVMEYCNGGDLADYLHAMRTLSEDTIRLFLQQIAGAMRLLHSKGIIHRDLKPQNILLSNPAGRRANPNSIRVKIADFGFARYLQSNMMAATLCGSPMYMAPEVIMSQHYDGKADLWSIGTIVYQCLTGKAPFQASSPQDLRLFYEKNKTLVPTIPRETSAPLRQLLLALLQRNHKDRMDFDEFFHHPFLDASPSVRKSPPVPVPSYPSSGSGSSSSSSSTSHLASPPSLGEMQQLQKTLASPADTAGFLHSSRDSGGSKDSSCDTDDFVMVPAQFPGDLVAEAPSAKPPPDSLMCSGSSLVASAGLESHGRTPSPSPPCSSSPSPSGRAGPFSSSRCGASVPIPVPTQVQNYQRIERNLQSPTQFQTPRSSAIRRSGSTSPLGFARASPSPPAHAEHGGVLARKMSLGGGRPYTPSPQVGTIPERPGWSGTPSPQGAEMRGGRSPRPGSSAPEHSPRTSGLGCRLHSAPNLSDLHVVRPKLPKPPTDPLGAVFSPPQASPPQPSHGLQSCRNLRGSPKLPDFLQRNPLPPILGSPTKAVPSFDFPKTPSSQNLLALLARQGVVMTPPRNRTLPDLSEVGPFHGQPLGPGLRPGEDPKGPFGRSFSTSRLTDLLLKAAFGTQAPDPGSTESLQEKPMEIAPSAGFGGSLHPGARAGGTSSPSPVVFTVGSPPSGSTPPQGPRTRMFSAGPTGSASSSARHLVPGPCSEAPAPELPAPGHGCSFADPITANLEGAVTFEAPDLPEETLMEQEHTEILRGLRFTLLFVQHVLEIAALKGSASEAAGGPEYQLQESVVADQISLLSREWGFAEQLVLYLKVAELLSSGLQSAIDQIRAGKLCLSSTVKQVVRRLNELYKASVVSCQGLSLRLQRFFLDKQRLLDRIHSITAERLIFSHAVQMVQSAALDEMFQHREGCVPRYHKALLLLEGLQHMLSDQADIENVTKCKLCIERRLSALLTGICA

[3] = molecular target: Serine/threonine-protein kinase MRCK beta (Homo sapiens) (UniProt Q9Y5S2); test: Inhibition of human CDC42BPB at 1.82 nM by HotSpot assay relative to control
Sequence of Serine/threonine-protein kinase MRCK beta (Homo sapiens) (Q9Y5S2 whole entry): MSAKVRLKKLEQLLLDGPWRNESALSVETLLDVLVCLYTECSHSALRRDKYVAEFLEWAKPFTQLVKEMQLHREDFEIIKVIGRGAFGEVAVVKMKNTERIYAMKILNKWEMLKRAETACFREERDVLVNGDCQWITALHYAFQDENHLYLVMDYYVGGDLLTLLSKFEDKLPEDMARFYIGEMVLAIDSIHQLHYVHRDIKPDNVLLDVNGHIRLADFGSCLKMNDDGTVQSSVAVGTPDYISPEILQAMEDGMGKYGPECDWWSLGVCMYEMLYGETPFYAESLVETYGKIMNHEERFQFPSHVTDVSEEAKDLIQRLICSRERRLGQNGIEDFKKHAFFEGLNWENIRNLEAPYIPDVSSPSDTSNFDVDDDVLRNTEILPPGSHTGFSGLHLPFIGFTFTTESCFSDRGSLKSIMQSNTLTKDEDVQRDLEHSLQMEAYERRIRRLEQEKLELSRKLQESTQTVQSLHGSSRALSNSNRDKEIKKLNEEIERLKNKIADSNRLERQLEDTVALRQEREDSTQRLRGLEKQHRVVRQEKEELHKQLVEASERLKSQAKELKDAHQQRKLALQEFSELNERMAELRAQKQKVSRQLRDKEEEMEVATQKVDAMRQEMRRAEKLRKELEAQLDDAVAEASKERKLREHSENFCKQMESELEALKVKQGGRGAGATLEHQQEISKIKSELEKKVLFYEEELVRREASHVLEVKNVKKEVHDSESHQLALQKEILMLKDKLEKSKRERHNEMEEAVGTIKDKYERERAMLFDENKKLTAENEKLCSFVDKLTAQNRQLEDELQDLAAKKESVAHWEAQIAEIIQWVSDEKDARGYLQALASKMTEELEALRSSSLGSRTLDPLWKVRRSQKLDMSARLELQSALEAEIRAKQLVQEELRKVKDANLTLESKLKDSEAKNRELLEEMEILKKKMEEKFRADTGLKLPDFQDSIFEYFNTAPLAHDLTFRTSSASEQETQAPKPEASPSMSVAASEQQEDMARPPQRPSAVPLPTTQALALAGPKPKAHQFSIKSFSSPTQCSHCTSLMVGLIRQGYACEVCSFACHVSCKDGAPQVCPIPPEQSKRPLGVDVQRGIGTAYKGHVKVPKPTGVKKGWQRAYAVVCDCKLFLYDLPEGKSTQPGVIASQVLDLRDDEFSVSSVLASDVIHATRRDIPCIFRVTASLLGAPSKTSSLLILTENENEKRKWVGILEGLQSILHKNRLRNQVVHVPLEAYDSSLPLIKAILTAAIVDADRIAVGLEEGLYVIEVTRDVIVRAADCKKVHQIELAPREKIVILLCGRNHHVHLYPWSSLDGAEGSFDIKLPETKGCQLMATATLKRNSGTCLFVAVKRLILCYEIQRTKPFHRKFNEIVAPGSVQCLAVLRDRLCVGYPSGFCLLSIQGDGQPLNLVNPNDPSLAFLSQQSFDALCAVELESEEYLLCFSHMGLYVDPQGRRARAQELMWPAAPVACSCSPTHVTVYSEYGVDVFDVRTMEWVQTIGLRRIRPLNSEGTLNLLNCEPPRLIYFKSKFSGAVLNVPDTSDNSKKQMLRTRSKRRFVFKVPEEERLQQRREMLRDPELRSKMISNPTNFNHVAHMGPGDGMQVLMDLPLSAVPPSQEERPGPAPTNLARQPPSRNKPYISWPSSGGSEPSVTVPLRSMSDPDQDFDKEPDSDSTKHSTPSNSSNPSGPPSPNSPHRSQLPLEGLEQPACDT

[4] = molecular target: T3, Ephrin type-B receptor 1 (Homo sapiens) (UniProt P54762); test: Inhibition of human EPHB1 at 1.82 nM by HotSpot assay relative to control
T3 sequence (whole entry): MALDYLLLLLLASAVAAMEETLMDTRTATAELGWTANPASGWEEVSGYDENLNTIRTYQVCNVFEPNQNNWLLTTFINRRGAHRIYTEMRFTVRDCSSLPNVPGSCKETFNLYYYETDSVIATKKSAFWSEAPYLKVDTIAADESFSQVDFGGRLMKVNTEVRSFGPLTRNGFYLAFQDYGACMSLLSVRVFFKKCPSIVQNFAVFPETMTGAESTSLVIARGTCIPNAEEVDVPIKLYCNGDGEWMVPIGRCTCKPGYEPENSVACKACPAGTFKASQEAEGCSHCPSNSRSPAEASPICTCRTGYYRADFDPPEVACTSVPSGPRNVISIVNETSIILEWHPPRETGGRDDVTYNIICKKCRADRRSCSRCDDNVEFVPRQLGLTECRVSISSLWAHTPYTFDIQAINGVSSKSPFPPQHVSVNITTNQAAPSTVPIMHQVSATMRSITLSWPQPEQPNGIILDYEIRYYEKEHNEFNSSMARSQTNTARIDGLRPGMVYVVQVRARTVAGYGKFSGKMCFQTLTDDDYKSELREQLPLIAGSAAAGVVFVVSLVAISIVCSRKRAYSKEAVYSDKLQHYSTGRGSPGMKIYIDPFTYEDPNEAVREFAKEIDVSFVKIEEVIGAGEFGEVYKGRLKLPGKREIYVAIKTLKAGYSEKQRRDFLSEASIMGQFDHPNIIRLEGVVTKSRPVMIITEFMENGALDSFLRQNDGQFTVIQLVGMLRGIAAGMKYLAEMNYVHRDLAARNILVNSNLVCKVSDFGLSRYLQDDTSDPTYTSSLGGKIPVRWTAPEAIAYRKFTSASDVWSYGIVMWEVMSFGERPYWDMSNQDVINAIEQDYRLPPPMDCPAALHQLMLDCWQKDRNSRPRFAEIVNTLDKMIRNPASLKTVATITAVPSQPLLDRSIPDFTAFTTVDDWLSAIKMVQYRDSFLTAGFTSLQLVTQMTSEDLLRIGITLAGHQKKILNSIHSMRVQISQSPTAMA

inhibition [1] [%]	inhibition [2] [%]	inhibition [3] [%]	inhibition [4] [%]	SMILES
-6.35				C[C@]1(O)C[C@@H](c2nc(-c3ccc4ccc(-c5ccccc5)nc4c3)c3c(N)nccn32)C1
	0.76	-4.49	2.28	C[C@@]1(C(=O)Nc2ccc(F)nc2)CCCN1c1nc(Nc2cc(C3CC3)n[nH]2)c2cccn2n1
